Where a SMILES comes first, the peptide text is derived from it. Where no end group is shown, it is not given here.
Experiments:
[1] = target: T1, binding of the integrin α4 β1 to VCAM (Homo sapiens, UniProt P05556+P13612); test: Cell-cell assay: 35S-labelled Ramos cells binding to VCAM expressing CHO cells; assay type: cell-based; details: single concentration at which SEQ ID NO:9 gives approximately 50% inhibition of adhesion; SEQ ID NO:9 = 1.00; >2.00 indicates little or no inhibition of VCAM-α4 β1 binding
T1 construct: endogenous in cells; host or cells: Ramos (human B-cell line) for endogenous α4β1; CHO cells stably transfected with human VCAM cDNA for the counter-receptor
Text: The VCAM-1 binding assays involved assessing the ability of cells that express α4 β1 to bind cells expressing VCAM (cell-cell assay) or to bind purified VCAM protein (cell-protein assay). The integrin-expressing cell types used in these assays included the human B-cell line, Ramos, and the human promyelocytic line, HL-60. The cell-cell assay was used to compare the relative potency of peptides at a single dose. The cell-protein assay was used to generate dose response curves and determine IC50 values. A human VCAM cDNA was amplified by the polymerase chain reaction (PCR) from cDNA reverse transcribed from RNA isolated from human umbilical vein endothelial cells. The VCAM cDNA was ligated into a mammalian expression vector and electroporated into chinese hamster ovary (CHO) cells. Cells were grown in G418 selective media and clones expressing high levels of VCAM were selected by FACS analysis. VCAM expressing CHO cells and nontransfected CHO cells were plated in 48 well cluster dishes at a density of 50,000 cells/well 24 hour prior to assay. The dishes were washed with binding buffer (DMEM, 1% BSA, 1.0 mM MnCl2, 0.02% sodium azide, pH 7.4) immediately prior to assay. […] Unbound cells were removed by washing with binding buffer and the remaining bound cells were lysed with 50 mM Tris, pH 8.0, 150 mM NaCl, 1% SDS and transferred to scintillation vials for quantitation.

[2] = target: T2, binding of α4 β1 integrin to VCAM-1 (Homo sapiens, UniProt P05556+P13612); test: Cell-protein assay: calcein-labelled Ramos cells binding to VCAM-mouse IgG fusion protein on magnetic beads; assay type: cell-based; details: for peptide concentration at which binding of α4 β1 to VCAM-1 is significantly inhibited: less than about 100, assay format not stated
T2 construct: endogenous in cells; host or cells: Ramos (human B-cell line) for endogenous α4β1; the VCAM-mouse IgG fusion was made in house, secreted from transfected COS cells and captured on goat anti-mouse IgG Dynal beads
Text: The VCAM-1 binding assays involved assessing the ability of cells that express α4 β1 to bind cells expressing VCAM (cell-cell assay) or to bind purified VCAM protein (cell-protein assay). The integrin-expressing cell types used in these assays included the human B-cell line, Ramos, and the human promyelocytic line, HL-60. The cell-cell assay was used to compare the relative potency of peptides at a single dose. The cell-protein assay was used to generate dose response curves and determine IC50 values.
An expression vector was designed such that a region of VCAM known to bind the integrin was-expressed as a fusion protein with mouse IgG. A cDNA containing the two N-terminal domains of human VCAM was generated by the polymerase chain reaction (PCR) from a full length VCAM cDNA. Similarly, a cDNA containing the hinge, CH2 and CH3 regions of mouse IgG2A was amplified by PCR from cDNA made from total RNA isolated from the hybridoma cell line 402C10. The VCAM cDNA was ligated to the mouse IgG cDNA and cloned into a mammalian expression vector. […] The media was collected and active protein was purified by immunoprecipitation using Dynal magnetic polystyrene beads coated with goat anti-mouse IgG. Following immunoprecipitation, the beads bound Ramos cells that expressed the integrin α4 β1.
Ramos cells were fluorescently labeled with calcein AM (Molecular Probes) and resuspended in 1 ml of binding buffer (Hanks' balanced salt solution, pH 7.4, 1.0 mM CaCl2, 1.0 mM MgCl2 and 1.0 mM MnCl2). The beads (10 μl, 4×10^6 beads/ml) were placed in wells of a 96-well microtiter dish with 10 μl of peptide at various concentrations. The beads were incubated with 10 μl of labeled cells (10^7 cells/ml) for 10 min at room temperature. Following immobilization of the beads onto the plastic with a magnet, unbound cells were removed by washing three times with binding buffer. The remaining bound cells were lysed in 50 mM Tris, pH 7.4, 5.0 mM EDTA, 1.0% NP-40 and quantitated by fluorimetry using a Millipore Cytofluor 2350 fluorimeter. Dose response curves were calculated and IC50 values determined. Peptides having the amino acid residue sequences of SEQ ID NOs:8-102 were tested for their ability to inhibit the binding of α4 β1 integrin to VCAM-1.

T2 sequence (P13612 34-1032): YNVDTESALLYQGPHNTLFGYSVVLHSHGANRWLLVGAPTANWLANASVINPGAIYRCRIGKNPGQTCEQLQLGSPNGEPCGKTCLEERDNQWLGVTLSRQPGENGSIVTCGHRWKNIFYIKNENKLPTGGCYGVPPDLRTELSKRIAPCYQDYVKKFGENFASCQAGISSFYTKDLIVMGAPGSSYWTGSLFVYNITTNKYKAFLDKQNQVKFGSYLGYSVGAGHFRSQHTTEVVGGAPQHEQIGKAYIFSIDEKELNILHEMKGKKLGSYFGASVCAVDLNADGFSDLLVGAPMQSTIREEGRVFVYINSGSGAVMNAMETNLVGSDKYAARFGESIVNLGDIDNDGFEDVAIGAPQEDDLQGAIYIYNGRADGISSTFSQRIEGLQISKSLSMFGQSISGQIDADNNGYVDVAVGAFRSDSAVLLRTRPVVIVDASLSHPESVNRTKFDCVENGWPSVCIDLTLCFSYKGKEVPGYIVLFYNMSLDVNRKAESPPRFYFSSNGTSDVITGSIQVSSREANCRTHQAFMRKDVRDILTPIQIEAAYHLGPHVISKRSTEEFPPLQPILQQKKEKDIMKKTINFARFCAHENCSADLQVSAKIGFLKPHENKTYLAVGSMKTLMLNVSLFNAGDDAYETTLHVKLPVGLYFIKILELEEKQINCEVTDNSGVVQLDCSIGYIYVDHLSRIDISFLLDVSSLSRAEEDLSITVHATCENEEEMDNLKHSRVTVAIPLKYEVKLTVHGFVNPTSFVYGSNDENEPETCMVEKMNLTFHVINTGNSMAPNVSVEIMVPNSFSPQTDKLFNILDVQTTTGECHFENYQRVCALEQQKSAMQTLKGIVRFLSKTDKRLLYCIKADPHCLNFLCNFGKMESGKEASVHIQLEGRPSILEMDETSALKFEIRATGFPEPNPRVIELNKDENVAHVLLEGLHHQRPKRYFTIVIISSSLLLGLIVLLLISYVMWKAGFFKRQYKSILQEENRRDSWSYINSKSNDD
T2 sequence (P05556 21-798): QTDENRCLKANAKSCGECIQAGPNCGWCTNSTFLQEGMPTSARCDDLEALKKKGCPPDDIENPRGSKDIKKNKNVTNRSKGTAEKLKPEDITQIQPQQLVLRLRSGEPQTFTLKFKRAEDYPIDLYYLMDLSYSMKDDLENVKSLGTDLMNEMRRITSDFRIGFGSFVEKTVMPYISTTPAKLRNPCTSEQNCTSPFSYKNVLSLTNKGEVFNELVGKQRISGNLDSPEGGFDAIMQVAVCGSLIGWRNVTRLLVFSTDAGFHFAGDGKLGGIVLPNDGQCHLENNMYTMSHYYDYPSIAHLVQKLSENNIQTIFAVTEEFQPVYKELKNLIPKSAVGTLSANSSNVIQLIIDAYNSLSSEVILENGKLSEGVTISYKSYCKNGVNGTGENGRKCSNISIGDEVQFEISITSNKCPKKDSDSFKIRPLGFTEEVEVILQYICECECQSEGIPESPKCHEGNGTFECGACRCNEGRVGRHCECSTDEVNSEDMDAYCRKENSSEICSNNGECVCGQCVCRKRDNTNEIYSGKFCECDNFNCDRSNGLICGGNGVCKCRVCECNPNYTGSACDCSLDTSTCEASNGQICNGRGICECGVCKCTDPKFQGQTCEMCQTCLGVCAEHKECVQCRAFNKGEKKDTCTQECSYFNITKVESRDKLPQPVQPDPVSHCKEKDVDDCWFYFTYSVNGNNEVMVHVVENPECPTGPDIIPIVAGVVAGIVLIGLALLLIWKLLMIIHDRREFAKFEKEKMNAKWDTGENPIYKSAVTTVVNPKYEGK
T1 sequence (P13612 34-1032): as the sequence (P13612 34-1032) above
T1 sequence (P05556 21-798): as the sequence (P05556 21-798) above

Row | Compound | relative quantity of adhered cells in relationship to peptide SEQ ID NO:9 [1] | IC50 ([2]; independent cell-protein based assays) [µM] | peptide concentration at which binding of α4 β1 to VCAM-1 is significantly inhibited [2]
1 | GPEWLDVP-NH2 [SEQ ID NO:9, Gly-Pro-Glu-Trp-Leu-Asp-Val-Pro-amide] | 1.00 | 30 | 
2 | CC(C)C[C@H](NC(=O)[C@@H](N)Cc1ccccc1)C(=O)N[C@@H](CC(=O)O)C(=O)N[C@H](C(N)=O)C(C)C [SEQ ID NO:25, Phe-Leu-Asp-Val-amide] (H-FLDV-NH2) |  |  | less than 100 μM
3 | EWLDV-OH [SEQ ID NO:14, Glu-Trp-Leu-Asp-Val-acid] |  |  | less than 100 μM

— patent US5510332A, “Process to inhibit binding of the integrin α4 62 1 to VCAM-1 or fibronectin and linear peptides therefor” (priority 1994, dated 1996)
